For data set [1], the system named is HCT116-Cas9. Description: Growth suppression assay (resazurin). The format is cell-based. The following applies: 48 hours of incubation. As for the experimental part:
(§1) Breast, colon, ovarian, cervical, liver and lung carcinoma cell lines were grown in DMEM supplemented with 10% FBS, and antibiotics were cultured at 37 °C and 5% CO2. […] To obtain an oxygen concentration of 0.05%, the cells were flushed with the premixed gas continuously throughout the experiment.
(§2) Cells were grown in 96-well plates at a density of 3000 cells per well with or without doxycycline and treated with compounds. After 48 hours of incubation the proliferative cell reagent resazurin (Thermo Fisher Scientific) was added to the cells. The degree of resazurin reduction, which reflects cell viability, was measured by microplate reader by monitoring the absorbance at 570 nm and 600 nm, according to the manufacturer.
In general terms: Resazurin is reduced to fluorescent resorufin, in cell work by metabolically active cells.

Data set [2] relates to MCF7-Cas9. Description: Growth suppression assay (resazurin). The format is cell-based. Particulars: 48 hours of incubation. As for the experimental part: as §1, §2
A short description of data set [3]: Solubility (solvent). Particulars: solvent named in the table. The format is physicochemical.
The target of data set [4] is TrxRl (Homo sapiens, UniProt Q16881). Particulars: cell extracts and crystal structure of tetrameric TrxRl; earlier publication of the applicants; cited from earlier work.

What is called IC50 is the concentration that gives 50% inhibition.

Each structure is given as a SMILES string. Structures can show the parent of a compound that is named as a salt.

Sequence of TrxRl (Q16881 151-649): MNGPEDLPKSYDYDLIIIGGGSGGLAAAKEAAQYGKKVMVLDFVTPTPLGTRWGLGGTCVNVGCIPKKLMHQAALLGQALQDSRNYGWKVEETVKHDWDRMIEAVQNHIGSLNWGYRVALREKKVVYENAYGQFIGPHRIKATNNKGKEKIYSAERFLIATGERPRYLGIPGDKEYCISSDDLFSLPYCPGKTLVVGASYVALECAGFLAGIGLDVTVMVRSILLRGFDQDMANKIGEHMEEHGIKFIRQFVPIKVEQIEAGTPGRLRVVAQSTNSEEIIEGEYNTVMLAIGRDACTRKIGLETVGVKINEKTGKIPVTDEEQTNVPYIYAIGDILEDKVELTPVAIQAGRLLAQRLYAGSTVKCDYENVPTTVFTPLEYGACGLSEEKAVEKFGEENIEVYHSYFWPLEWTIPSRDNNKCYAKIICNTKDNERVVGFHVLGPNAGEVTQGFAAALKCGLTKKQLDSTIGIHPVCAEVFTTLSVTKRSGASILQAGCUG

Take `N#Cc1c(-c2ccncc2)[n+]([O-])c2cc(N3CCOCC3)c(F)cc2[n+]1[O-]` [1a*MsOH, 7-Fluoro-6-(morpholin-4-yl)-3-(pyridin-4-yl)quinoxaline-2-carbonitrile-1,4-dioxide methanesulfonate]: the IC50 in data set [1] (methanesulfonate) was determined as 1.2 µM; in data set [2] (methanesulfonate) it was 2.4 µM.
With `N#Cc1c(-c2ccncc2)[n+]([O-])c2cc(F)c(N3CCOCC3)cc2[n+]1[O-]` [1b*HCl, 6-Fluoro-7-(morpholin-4-yl)-3-(pyridin-4-yl)quinoxaline-2-carbonitrile-1,4-dioxide hydrochloride], the values for the half-maximal inhibitory concentration (IC50) in data set [1] (hydrochloride) and in data set [2] (hydrochloride) were 3.2 µM and 3.8 µM, respectively.
Take `N#Cc1c(-c2ccncc2)[n+]([O-])c2cc(F)c(N3CCOCC3)cc2[n+]1[O-]` [1b*MsOH, 6-Fluoro-7-(morpholin-4-yl)-3-(pyridin-4-yl)quinoxaline-2-carbonitrile-1,4-dioxide methanesulfonate]: in data set [2] (methanesulfonate), the IC50 worked out at 4.2 µM.
`N#Cc1c(-c2cccnc2)[n+]([O-])c2cc(N3CCOCC3)c(F)cc2[n+]1[O-]` [1c*HCl, 7-Fluoro-6-(morpholin-4-yl)-3-(pyridin-3-yl)quinoxaline-2-carbonitrile-1,4-dioxide hydrochloride]: the IC50 in data set [1] (hydrochloride) is 10.9 µM; in data set [2] (48 h), more than 10 µM.
Turning to `N#Cc1c(-c2ccncc2)[n+]([O-])c2cc(N3CCOCC3)c(F)cc2[n+]1[O-]` [Compound 1a, 7-Fluoro-6-(morpholin-4-yl)-3-(pyridin-4-yl)quinoxaline-2-carbonitrile 1,4-dioxide], the IC50 in data set [1] is 3.5 µM; in data set [2] it was 6.9 µM. For the same molecule, the Solubility result in data set [3] is recorded as “Warm DMSO”.
As for `N#Cc1c(-c2ccncc2)[n+]([O-])c2cc(F)c(N3CCOCC3)cc2[n+]1[O-]` [Compound 1b, 6-Fluoro-7-(morpholin-4-yl)-3-(pyridin-4-yl)quinoxaline-2-carbonitrile-1,4-dioxide], the IC50 in data set [1] (48 h) amounted to 2.8 µM; in data set [2] (48 h), 4.1 µM. In data set [3], the Solubility result is “Warm DMSO”.
`N#Cc1c(-c2cccnc2)[n+]([O-])c2cc(N3CCOCC3)c(F)cc2[n+]1[O-]` [Compound 1c, 7-Fluoro-6-(morpholin-4-yl)-3-(pyridin-3-yl)quinoxaline-2-carbonitrile-1,4-dioxide]: inhibition in data set [1] was half-maximal at 3.3 µM (IC50). For the same molecule, the Solubility result in data set [3] is listed as “Warm DMSO”.
With `N#Cc1c(-c2cccnc2)[n+]([O-])c2cc(F)c(N3CCOCC3)cc2[n+]1[O-]` [Compound 1d, 6-Fluoro-7-(morpholin-4-yl)-3-(pyridin-3-yl)quinoxaline-2-carbonitrile-1,4-dioxide], in data set [1], half-maximal inhibition (IC50) required 4.1 µM. Further, the Solubility entry in data set [3] was “Warm DMSO”.
For `N#Cc1c(-c2cccnc2)[n+]([O-])c2cc(F)c(N3CCCC3)cc2[n+]1[O-]` [Compound 1f, 6-Fluoro-7-(pyrrolidin-1-yl)-3-(pyridin-3-yl)quinoxaline-2-carbonitrile-1,4-dioxide], the IC50 in data set [1] (48 h) worked out at 2.2 µM; in data set [2] (48 h), 3.8 µM. The Solubility entry in data set [3] is “Warm DMSO”.
The matching figures for `N#Cc1c(-c2cccnc2)[n+]([O-])c2cc(F)c(N3CCCCC3)cc2[n+]1[O-]` [Compound 1g, 6-Fluoro-7-(piperidin-1-yl)-3-(pyridin-3-yl)quinoxaline-2-carbonitrile-1,4-dioxide]: 2.8 µM, 4.1 µM and “Warm DMSO”.
For the molecule `OCc1ccc(-c2ccc(-c3ccc(CO)s3)o2)s1` [RITA], in data set [4], the “covalent link between TrxRl subunits” value is reported as “induced the formation of a covalent link between two oxidized Trp114 residues”.
